A word on the MIC: it is the least concentration at which growth counts as inhibited. Low readings indicate greater potency, high ones weaker potency.

Results on ten compounds are retold here after ChEMBL document CHEMBL1126625, “7-Azetidinylquinolones as antibacterial agents. Synthesis and structure-activity relationships” (J Med Chem, 1993).

Type in all cases: functional
One test has as its system Klebsiella pneumoniae. In words: Minimum inhibitory concentration (MIC)preventing growth of Klebsiella pneumoniae.
Test [1] deals with Staphylococcus epidermidis. The test is described as follows: Minimum inhibitory concentration (MIC) preventing growth of Staphylococcus epidermidis.
The next test relates to Staphylococcus aureus. The test is described as follows: Minimum inhibitory concentration (MIC) preventing growth of […].
A further test has as its system Enterococcus faecalis. In words: Minimum inhibitory concentration (MIC) preventing growth of Streptococcus faecalis ATCC 10541.
Another test has as its system Morganella morganii. The test is described as follows: Minimum inhibitory concentration (MIC) preventing growth of Morganella morganii.
The test system of a further test is Bacillus subtilis. In words: Minimum inhibitory concentration (MIC) preventing growth of Bacillus subtilis.
For another test, the system named is Bacillus cereus. The test is described as follows: Minimum inhibitory concentration (MIC) preventing growth of Bacillus cereus.
For another test, the system named is Pseudomonas aeruginosa. The test is described as follows: Minimum inhibitory concentration (MIC)preventing growth of Pseudomonas aeruginosa.
For the next test, the system named is Escherichia coli. In words: Minimum inhibitory concentration (MIC)preventing growth of Escherichia coli.
The next test deals with Proteus vulgaris. In words: Minimum inhibitory concentration (MIC) preventing growth of Proteus vulgaris.
The subject of another test is Enterobacter cloacae. The test is described as follows: Minimum inhibitory concentration (MIC)preventing growth of Enterobacter cloacae.

≈ marks a conversion by molar mass, not a printed value.

Regarding `Nc1c(F)c(N2CC(N)C2)c(F)c2c1c(=O)c(C(=O)O)cn2C1CC1`, the MIC came to 0.015 µg/mL (≈ 0.0428 µM) in the test with Klebsiella pneumoniae; 0.12 µg/mL (≈ 0.343 µM) in test [1]; 0.06 µg/mL (≈ 0.171 µM) against Staphylococcus aureus; 0.25 µg/mL (≈ 0.714 µM) in the test with Enterococcus faecalis; 0.015 µg/mL (≈ 0.0428 µM) in the test on Morganella morganii; 0.015 µg/mL (≈ 0.0428 µM) against Bacillus subtilis. For the same compound, the MIC in the test with Bacillus cereus stood at 0.015 µg/mL (≈ 0.0428 µM); with Pseudomonas aeruginosa, 0.25 µg/mL (≈ 0.714 µM); against Escherichia coli, 0.015 µg/mL (≈ 0.0428 µM); against Proteus vulgaris, 0.06 µg/mL (≈ 0.171 µM); with Enterobacter cloacae it was 0.015 µg/mL (≈ 0.0428 µM).

Turning to `CC1(N)CN(c2c(F)cc3c(=O)c(C(=O)O)cn(-c4ccc(F)cc4F)c3c2F)C1`, the minimum inhibitory concentration (MIC) worked out at 0.5 µg/mL (≈ 1.19 µM) in the test with Klebsiella pneumoniae; 0.5 µg/mL (≈ 1.19 µM) in test [1]; 0.25 µg/mL (≈ 0.593 µM) against Staphylococcus aureus; 0.25 µg/mL (≈ 0.593 µM) in the test with Enterococcus faecalis; 0.5 µg/mL (≈ 1.19 µM) with Morganella morganii; 0.25 µg/mL (≈ 0.593 µM) with Bacillus subtilis. Further, the minimum inhibitory concentration (MIC) with Bacillus cereus was found to be 0.5 µg/mL (≈ 1.19 µM); in the test with Pseudomonas aeruginosa it was 2 µg/mL (≈ 4.75 µM); with Escherichia coli it was 0.25 µg/mL (≈ 0.593 µM); against Proteus vulgaris, 0.5 µg/mL (≈ 1.19 µM); in the test on Enterobacter cloacae, 0.25 µg/mL (≈ 0.593 µM).

Take `CC1(N)CN(c2c(F)cc3c(=O)c(C(=O)O)cn(CCF)c3c2Cl)C1`: the minimal inhibitory concentration (MIC) against Klebsiella pneumoniae was found to be 0.015 µg/mL (≈ 0.0403 µM); in test [1] it was 0.12 µg/mL (≈ 0.323 µM); against Staphylococcus aureus, 0.25 µg/mL (≈ 0.672 µM); against Enterococcus faecalis it was 1 µg/mL (≈ 2.69 µM); in the test on Morganella morganii, 0.015 µg/mL (≈ 0.0403 µM); against Bacillus subtilis, 0.06 µg/mL (≈ 0.161 µM). Besides, the MIC against Bacillus cereus was 0.5 µg/mL (≈ 1.34 µM); against Pseudomonas aeruginosa it was 1 µg/mL (≈ 2.69 µM); against Escherichia coli, 0.06 µg/mL (≈ 0.161 µM); against Proteus vulgaris, 1 µg/mL (≈ 2.69 µM); in the test on Enterobacter cloacae, 0.015 µg/mL (≈ 0.0403 µM).

Consider `O=C(O)c1cn(C2CC2)c2cc(N3CCC3)c(F)cc2c1=O`, for which the MIC with Klebsiella pneumoniae came out at 0.015 µg/mL (≈ 0.0496 µM); in test [1], 0.06 µg/mL (≈ 0.198 µM); against Staphylococcus aureus it was 0.06 µg/mL (≈ 0.198 µM); against Enterococcus faecalis, 2 µg/mL (≈ 6.62 µM); against Morganella morganii it was 0.25 µg/mL (≈ 0.827 µM); in the test with Bacillus subtilis it was 0.015 µg/mL (≈ 0.0496 µM). The MIC in the test on Bacillus cereus came to 0.06 µg/mL (≈ 0.198 µM); in the test with Pseudomonas aeruginosa it was 2 µg/mL (≈ 6.62 µM); against Escherichia coli, 0.12 µg/mL (≈ 0.397 µM); with Proteus vulgaris, 0.06 µg/mL (≈ 0.198 µM); in the test on Enterobacter cloacae it was 0.12 µg/mL (≈ 0.397 µM).

Turning to `CNC1CN(c2nc3c(cc2F)c(=O)c(C(=O)O)cn3C2CC2)C1`, the MIC was found to be 0.03 µg/mL (≈ 0.0903 µM) in the test on Klebsiella pneumoniae; 0.12 µg/mL (≈ 0.361 µM) in test [1]; 0.25 µg/mL (≈ 0.752 µM) in the test with Staphylococcus aureus; 0.5 µg/mL (≈ 1.5 µM) in the test with Enterococcus faecalis; 0.06 µg/mL (≈ 0.181 µM) against Morganella morganii; 0.06 µg/mL (≈ 0.181 µM) against Bacillus subtilis. Further, the MIC against Bacillus cereus was 0.12 µg/mL (≈ 0.361 µM); with Pseudomonas aeruginosa, 0.5 µg/mL (≈ 1.5 µM); with Escherichia coli it was 0.03 µg/mL (≈ 0.0903 µM); against Proteus vulgaris it was 0.25 µg/mL (≈ 0.752 µM); against Enterobacter cloacae, 0.03 µg/mL (≈ 0.0903 µM).

In the case of `Nc1c(F)c(N2CC(O)C2)c(F)c2c1c(=O)c(C(=O)O)cn2C1CC1`, the MIC with Klebsiella pneumoniae is 0.015 µg/mL (≈ 0.0427 µM); in [1], 0.06 µg/mL (≈ 0.171 µM); against Staphylococcus aureus, 0.06 µg/mL (≈ 0.171 µM); in the test with Enterococcus faecalis it was 2 µg/mL (≈ 5.69 µM); against Morganella morganii, 0.12 µg/mL (≈ 0.342 µM); with Bacillus subtilis, 0.015 µg/mL (≈ 0.0427 µM). The MIC was 0.015 µg/mL (≈ 0.0427 µM) against Bacillus cereus; 2 µg/mL (≈ 5.69 µM) with Pseudomonas aeruginosa; 0.06 µg/mL (≈ 0.171 µM) in the test with Escherichia coli; 0.12 µg/mL (≈ 0.342 µM) against Proteus vulgaris; 0.12 µg/mL (≈ 0.342 µM) in the test with Enterobacter cloacae.

`CC1(CN)CN(c2cc3c(cc2F)c(=O)c(C(=O)O)cn3C2CC2)C1`: the MIC is 0.25 µg/mL (≈ 0.724 µM) in the test with Klebsiella pneumoniae; 0.25 µg/mL (≈ 0.724 µM) in [1]; 0.25 µg/mL (≈ 0.724 µM) against Staphylococcus aureus; 0.5 µg/mL (≈ 1.45 µM) with Enterococcus faecalis; 0.12 µg/mL (≈ 0.347 µM) with Morganella morganii; 0.06 µg/mL (≈ 0.174 µM) against Bacillus subtilis. Moreover, the minimal inhibitory concentration (MIC) against Bacillus cereus stood at 0.12 µg/mL (≈ 0.347 µM); against Pseudomonas aeruginosa, 1 µg/mL (≈ 2.9 µM); with Escherichia coli, 0.12 µg/mL (≈ 0.347 µM); in the test with Proteus vulgaris, 0.12 µg/mL (≈ 0.347 µM); in the test with Enterobacter cloacae it was 0.25 µg/mL (≈ 0.724 µM).

Regarding `CCNC1CN(c2cc3c(cc2F)c(=O)c2c(=O)[nH]sc2n3C2CC2)C1`, the MIC in the test with Klebsiella pneumoniae was 0.03 µg/mL (≈ 0.0801 µM); in [1] it was 0.06 µg/mL (≈ 0.16 µM); with Staphylococcus aureus, 0.06 µg/mL (≈ 0.16 µM); in the test with Enterococcus faecalis, 0.5 µg/mL (≈ 1.34 µM); against Morganella morganii it was 0.06 µg/mL (≈ 0.16 µM); in the test with Bacillus subtilis, 0.03 µg/mL (≈ 0.0801 µM). For the same compound, the minimal inhibitory concentration (MIC) in the test with Bacillus cereus is 0.12 µg/mL (≈ 0.32 µM); with Pseudomonas aeruginosa, 0.5 µg/mL (≈ 1.34 µM); with Escherichia coli, 0.03 µg/mL (≈ 0.0801 µM); against Proteus vulgaris, 0.12 µg/mL (≈ 0.32 µM); against Enterobacter cloacae, 0.03 µg/mL (≈ 0.0801 µM).

Turning to `CC1(N)CN(c2cc3c(cc2F)c(=O)c2c(=O)[nH]sc2n3C2CC2)C1`, the minimal inhibitory concentration (MIC) against Klebsiella pneumoniae came out at 0.015 µg/mL (≈ 0.0416 µM); in test [1] it was 0.03 µg/mL (≈ 0.0832 µM); with Staphylococcus aureus it was 0.06 µg/mL (≈ 0.166 µM); against Enterococcus faecalis, 0.12 µg/mL (≈ 0.333 µM); against Morganella morganii, 0.015 µg/mL (≈ 0.0416 µM); against Bacillus subtilis, 0.015 µg/mL (≈ 0.0416 µM). The minimum inhibitory concentration (MIC) was found to be 0.03 µg/mL (≈ 0.0832 µM) against Bacillus cereus; 0.25 µg/mL (≈ 0.694 µM) against Pseudomonas aeruginosa; 0.015 µg/mL (≈ 0.0416 µM) against Escherichia coli; 0.06 µg/mL (≈ 0.166 µM) against Proteus vulgaris; 0.015 µg/mL (≈ 0.0416 µM) against Enterobacter cloacae.

With `CC(=O)OC1CN(c2c(F)cc3c(=O)c(C(=O)O)cn(C4CC4)c3c2F)C1`, the minimal inhibitory concentration (MIC) against Klebsiella pneumoniae was 0.015 µg/mL (≈ 0.0396 µM); in [1], 0.12 µg/mL (≈ 0.317 µM); in the test with Staphylococcus aureus it was 0.12 µg/mL (≈ 0.317 µM); against Enterococcus faecalis, 2 µg/mL (≈ 5.29 µM); against Morganella morganii, 0.25 µg/mL (≈ 0.661 µM); with Bacillus subtilis it was 0.015 µg/mL (≈ 0.0396 µM). Moreover, the minimal inhibitory concentration (MIC) in the test with Bacillus cereus was 0.12 µg/mL (≈ 0.317 µM); against Pseudomonas aeruginosa, 2 µg/mL (≈ 5.29 µM); in the test with Escherichia coli it was 0.12 µg/mL (≈ 0.317 µM); against Proteus vulgaris, 0.12 µg/mL (≈ 0.317 µM); in the test on Enterobacter cloacae, 0.12 µg/mL (≈ 0.317 µM).
